What was measured:
[1] = system: XG1 HMCL; experiment: Apoptosis induction, Annexin V APC staining by flow cytometry, XG1; assay type: cell-based, human; settings: XG1, UNC0379 5 mM (so in the source)
Experimental: (§1) Apoptosis induction was analyzed with Annexin V APC staining by flow cytometry. The shown data is one representative experiment and mean values±SD of 3 separate experiments. Statistical analysis was done with a paired t-test.

[2] = system: non-myeloma cells; assay type: cell-based, human; settings: 1, 2.5 and 5 μM, day 4, patient mononuclear cell cultures, n=8
Experimental: […]. At day 4 of culture, the viability and total cell counts were assessed and the percentage of CD138 viable plasma cells was determined by flow cytometry. Results are median values of the numbers of myeloma cells in the culture wells. The values were compared with a Wilcoxon test for pairs.
[…]. MMCs cytotoxicity was evaluated using anti-CD138-PE mAb (Immunotech, Marseille, France) as described^18,35. Results were analyzed using GraphPad Prism (http://www.graphpad.com/scientific-software/prism/).

[3] = system: XG7 HMCL; experiment: Apoptosis induction, Annexin V APC staining by flow cytometry, XG7; assay type: cell-based, human; settings: XG7, UNC0379 5 mM (so in the source)
Experimental: as §1

[4] = system: U2OS cells; experiment: Immunoblot analysis of DNA damage and checkpoint markers in U2OS cells treated with UNC0379; assay type: cell-based, human
Experimental: For immunoblot analysis, cells washed with phosphate-buffered saline (PBS) were lysed in Laemmli buffer. After measuring protein quantity by Bradford, equal amounts of protein were resolved by SDS-PAGE, transferred to a nitrocellulose membrane and probed with one of the following antibodies: anti-SETD8 (1:1000, Cell Signaling Technology), anti-H4K20me1 (1:1000 cell signaling) anti-phospho-H2A.X-Ser139 (1:1000, millipore). Membranes were then incubated with the appropriate horseradish peroxidase (HRP)-conjugated secondary antibodies. The immunoreactive bands were detected by chemiluminescence.

[5] = system: MM cells; experiment: DNA repair foci (53BP1) immunofluorescence, combination with melphalan; settings: sub-lethal dose of UNC0379 combined with melphalan, P<0.001
Description: At least 300 cells were counted for each treatment group.
After deposition on slides using a Cytospin centrifuge, cells were fixed with 4% PFA, permeabilized with 0.5% Triton in PBS and saturated with 5% bovine milk in PBS. […] Slides were washed and mounted with Vectashield and 1% DAPI. Images and fluorescence were captured with a ZEISS Axio Imager Z2 microscope (X63 objective) (company, town state), analyzed with Metafer (version3.6, company, town state) and ImageJ softwares. The number of 53BP1 and γH2AX foci was counted in at least 300 nuclei.

COc1cc2nc(N3CCCC3)nc(NCCCCCN3CCCC3)c2cc1OC [UNC0379]
annexin-V positive cells [1]: 87%
toxicity on the non-myeloma cells [2]: without significant toxicity
annexin-V positive cells [3]: 63%
P53 level [4]: stabilization of P53
phosphorylation of CHK1 (DNA damage checkpoint activation) [4]: phosphorylation of CHK1
γH2A.X (marker of DNA damage) [4]: increase in γH2A.X
accumulation of DNA double strand breaks (53BP1 foci) [5]: significantly synergizes with melphalan

Source: patent publication US20200330467A1, “METHOD AND PHARMACEUTICAL COMPOSITIONS FOR THE TREATMENT OF MULTIPLE MYELOMA” (priority 2016, published 2020)
